{"source": "paper PMC8068801", "about": "“Novel Benzenesulfonate Scaffolds with a High Anticancer Activity and G2/M Cell Cycle Arrest” (Cancers, 2021)", "key": {"U-251 cells [1]": {"system": "U-251 cells", "assay": "qRT-PCR mRNA expression, U-251", "format": "cell-based, human", "conditions": "for Increase in the GADD45α mRNA expression / p62 mRNA expression: 24 h; for LC3 mRNA expression: U-251, 24 h", "method": "(§1) The total RNA was isolated from the K562 and U-251 cells using the TRIzol Reagent procedure (Ambion, Austin, TX, USA). Reverse transcription was performed with 5 μg of total RNA using a GoScript™ Reverse Transcriptase kit (Promega) and Oligo(dT)23 Primers (Sigma). Real-time PCR was performed using a CTX96 Touch™ Real-Time PCR Detection System (Biorad, Hercules, CA, USA) in a 20 μL reaction volume. The reaction consisted of SsoAdvanced™ Universal SYBR® Green Supermix (Biorad), a specific primer pair mix (0.5 μM each) and 1 μL of cDNA. The reaction was performed under the following conditions: initial denaturation at 95 °C for 30 s; followed by 40 denaturation cycles at 95 °C, 15 s; annealing (primer-specific temperature for 30 s) and extension at 72 °C for 60 s. The obtained results were analyzed based on a comparison of the expression of the target genes to the reference gene, GAPDH, using the 2^−ΔΔCT method. The experiments were performed at least four times."}, "K562 cells [2]": {"system": "K562 cells", "assay": "Cell cycle assay (Muse Cell-Cycle Kit), K562", "format": "cell-based, human", "conditions": "24 h", "method": "(§2) The K562, U-251 and NHDF cells were seeded in 3 cm Petri dishes (Nunc) at a density of 250,000 cells per well and incubated under standard conditions at 37 °C for 24 h. […] After a 24 h treatment, the assays were performed using a Muse Cell-Cycle Kit (Millipore, Burlington, MA, USA) according to the supplier’s instructions. Briefly, the cells were collected, washed with cold PBS and centrifuged at 300 g for 5 min. Afterwards, the cells were fixed in ice cold 70% ethanol and stored at −20 °C overnight. The next day, the cells were washed with cold PBS, centrifuged and resuspended in 200 μL of the Muse™ Cell Cycle Reagent. The samples were incubated for 30 min at room temperature in the dark. After staining, the cellular subpopulation values in the individual cell cycle phases were estimated using a cell cycle analysis using a Muse Cell Analyzer (Millipore). The experiments were performed at least four times."}, "K562 cells [3]": {"system": "K562 cells", "assay": "qRT-PCR mRNA expression, K562", "format": "cell-based, human", "conditions": "24 h", "method": "as §1"}, "K562 cells [4]": {"system": "K562 cells", "assay": "Autophagy assay (Muse LC3-antibody kit), K562", "format": "cell-based, human", "conditions": "K562, 0.5 μM, vs control", "method": "(§3) The K562 and U-251 cells were seeded in 96-well plates (Nunc) and incubated at 37 °C for 24 h. The density of the cells was 20,000 cells per well (for the 24 h assay) and 10,000 per well (for the 48 h assay). […] After treatment, the assays were performed using a Muse™ Autophagy LC3-antibody based kit (Millipore) according to the manufacturer’s instructions. Briefly, the cells were collected, washed with cold HPBS and centrifuged at 300 g for 5 min. […] The samples were incubated on ice for 30 min in the dark. After incubation, the cells were centrifuged and resuspended in 200 μL of a 1X Assay Buffer. Then, the samples were directly processed to analyze the autophagy induction using a Muse Cell Analyzer. The autophagy induction ratio was calculated on the basis of the ratio between the target sample fluorescence versus the control sample. The experiments were performed at least three times."}, "U-251 cells [5]": {"system": "U-251 cells", "assay": "Cell cycle assay (Muse Cell-Cycle Kit), U-251", "format": "cell-based, human", "conditions": "24 h", "method": "as §2"}, "U-251 cells [6]": {"system": "U-251 cells", "assay": "Annexin V binding (apoptosis) assay, U-251", "format": "cell-based, human", "conditions": "U-251, 6 μM, 48 h", "method": "The K562, U-251 and NHDF cells were seeded in 3 cm Petri dishes (Nunc) at a density of 250,000 cells per well and incubated at 37 °C for 24 h. Then, the medium was removed, and freshly prepared solutions of the tested compounds, BS1 and BS4 (two to three times the IC50 value), were added. After a 48 h incubation, the assays were performed using a FITC Annexin V Apoptosis Detection KIT with 7-AAD (Bio-Legend) according to the manufacturer’s instructions. Briefly, the cells were collected, washed twice with cold PBS and centrifuged at 300 g for 5 min. Next, the cells were resuspended in a 100 µL Annexin V Binding Buffer and incubated for 15 min at room temperature in the dark with 5 µL of FITC Annexin V and 5 µL 7-AAD Viability Staining Solution. After immunostaining, the number of events for live, early and late apoptotic cells were determined using a Muse Cell Analyzer. The experiments were performed at least four times."}, "purified bovine tubulin": {"system": "purified bovine tubulin", "assay": "In vitro tubulin polymerization assay", "format": "biochemical", "conditions": "10 µM; turbidity at 350 nm, maximum absorbance", "method": "The effect of small-molecule compounds on tubulin polymerization was monitored using an In Vitro Tubulin Polymerization Kit (≥99% Pure Bovine Tubulin) (Millipore) following the manufacturer’s protocol. Briefly, the tested compounds, BS1 and BS4, as well as reference drugs, paclitaxel (enhancer of polymerization) and nocodazole (inhibitor of polymerization) at a concentration of 10 µM were mixed with purified bovine tubulin (60 μM) and polymerization buffer with GTP (1 mM) on 96-well plate on ice. Then, the plate was transferred into the multi-plate reader (Synergy 4) chamber (heated to 37 °C) and measured the turbidity variation every 30 s at 350 nm during 90 min. The experiments were performed three times."}, "U-251 cells [7]": {"system": "U-251 cells", "assay": "Autophagy assay (Muse LC3-antibody kit), U-251", "format": "cell-based, human", "conditions": "U-251, 4 μM, 24 h; vs control", "method": "as §3"}}}
{"smiles": "COc1ccccc1/C=C/c1nc(OS(=O)(=O)c2ccc3c(c2)OCO3)c2ccccc2n1", "note": "[BS1, 2-((E)-2-(2-methoxyphenyl)ethenyl)quinazolin-4-yl 1,3-benzodioxole-5-sulfonate]", "values": [{"measurement": "Increase in the GADD45α mRNA expression", "setting": "U-251 cells [1]; U-251, 4 µM", "result": "~1.5", "unit": "fold"}, {"measurement": "p62 mRNA expression", "setting": "U-251 cells [1]; U-251, 4 µM", "result": "almost four-fold increase"}, {"measurement": "LC3 mRNA expression", "setting": "U-251 cells [1]", "result": "more than two-fold increase"}, {"measurement": "Cells in G2/M phase, mean ± SD", "setting": "K562 cells [2]; K562, 0.35 µM", "result": 43.46, "unit": "%"}, {"measurement": "Cells in G2/M phase, mean ± SD", "setting": "K562 cells [2]; K562, 0.5 μM", "result": 37.20, "unit": "%"}, {"measurement": "Decrease in the IDH1 mRNA level", "setting": "K562 cells [3]; K562, 0.5 μM", "result": "~2.4", "unit": "fold"}, {"measurement": "p62 mRNA level", "setting": "K562 cells [3]; K562, 0.5 μM", "result": "about three-fold"}, {"measurement": "Autophagy induction ratio", "setting": "K562 cells [4]; 24 h", "result": 2.26}, {"measurement": "Autophagy induction ratio", "setting": "K562 cells [4]; 48 h", "result": 1.96}, {"measurement": "Cells in G2/M phase, mean ± SD", "setting": "U-251 cells [5]; U-251, 4 µM", "result": 85.40, "unit": "%"}, {"measurement": "Cells in G0/G1 phase, mean ± SD", "setting": "U-251 cells [5]; U-251, 6 μM", "result": 1.52, "unit": "%"}, {"measurement": "Cells in G2/M phase, mean ± SD", "setting": "U-251 cells [5]; U-251, 6 μM", "result": 90.68, "unit": "%"}, {"measurement": "Cells in S phase, mean ± SD", "setting": "U-251 cells [5]; U-251, 6 μM", "result": 1.52, "unit": "%"}, {"measurement": "Early apoptotic cells, mean ± SD", "setting": "U-251 cells [6]", "result": 39.80, "unit": "%"}, {"measurement": "Late apoptotic cells, mean ± SD", "setting": "U-251 cells [6]", "result": 11.40, "unit": "%"}, {"measurement": "Enhancement of tubulin polymerization, increase compared to control", "setting": "purified bovine tubulin", "result": "about 47%"}]}
{"smiles": "COc1ccccc1/C=C/c1nc(OS(=O)(=O)c2ccc(C)cc2)c2ccccc2n1", "note": "[BS4, 2-((E)-2-(2-methoxyphenyl)ethenyl)quinazolin-4-yl 4-methylbenzenesulfonate]", "values": [{"measurement": "Increase in the GADD45α mRNA expression", "setting": "U-251 cells [1]; U-251, 4 µM", "result": "~1.5", "unit": "fold"}, {"measurement": "p62 mRNA expression", "setting": "U-251 cells [1]; U-251, 6 μM", "result": "almost four-fold increase"}, {"measurement": "LC3 mRNA expression", "setting": "U-251 cells [1]", "result": "more than two-fold increase"}, {"measurement": "Cells in G0/G1 phase, mean ± SD", "setting": "K562 cells [2]; K562, 0.5 μM", "result": 21.80, "unit": "%"}, {"measurement": "Cells in G2/M phase, mean ± SD", "setting": "K562 cells [2]; K562, 0.5 μM", "result": 58.73, "unit": "%"}, {"measurement": "Cells in S phase, mean ± SD", "setting": "K562 cells [2]; K562, 0.5 μM", "result": 18.32, "unit": "%"}, {"measurement": "LC3 transcript levels", "setting": "K562 cells [3]; K562, 0.35 µM", "result": "decreased"}, {"measurement": "Decrease in the IDH1 mRNA level", "setting": "K562 cells [3]; K562, 0.5 µM and 0.35 µM", "result": "about a two-fold decrease"}, {"measurement": "GADD45α mRNA expression", "setting": "K562 cells [3]; K562, 0.5 μM", "result": "almost two-fold decrease"}, {"measurement": "Autophagy induction ratio", "setting": "U-251 cells [7]", "result": 5.03}, {"measurement": "Increase in the fraction of cells in the G2/M phase compared to the control", "setting": "U-251 cells [5]; U-251, 4 µM", "result": "~23.1", "unit": "%"}, {"measurement": "Increase in the fraction of cells in the G2/M phase compared to the control", "setting": "U-251 cells [5]; U-251, 6 μM", "result": "about 40.92%"}]}
